Experimental data as given in BindingDB's records for doi:10.1021/jm0104567 (Takeda Chemical Industries, 2002).
Where a name gives a salt, the structure may show the parent alone.

Assay: In vitro inhibition of acid induced swelling in rat platelets by 50% as a measure of NHE-1 inhibition

Structure (SMILES)	IC50 [nM]
CC(C)c1ccc(C(=O)NC(=N)N)cc1S(C)(=O)=O	75
Cc1ccnc2c1C(=NN=C(N)N)C[C@@H](c1cc(Cl)sc1Cl)C2 [(R)-N-[7-(2,5-dichloro-3-thienyl)-4-methyl-(7R)-5,6,7,8-tetrahydro-5-quinolinyliden(imine)]iminomethanediamine 2CH3SO3H]	33
Cc1ccnc2c1C(=NN=C(N)N)C[C@H](c1cc(Cl)sc1Cl)C2 [(S)-N-[7-(2,5-dichloro-3-thienyl)-4-methyl-(7S)-5,6,7,8-tetrahydro-5-quinolinyliden(imine)]iminomethanediamine 2CH3SO3H]	17
Cc1ccc(F)cc1[C@H]1CC(=NN=C(N)N)c2c(C)ccnc2C1 [(S)-N-[7-(5-fluoro-2-methylphenyl)-4-methyl-(7S)-5,6,7,8-tetrahydro-5-quinolinyliden(imine)]iminomethanediamine 2CH3SO3H]	14
Cc1cc(C)c2c(n1)CC(c1ccccc1)CC2=NN=C(N)N (stereo not drawn) [N-(2,4-dimethyl-7-phenyl-5,6,7,8-tetrahydro-5-quinolinyliden(imine))iminomethanediamine. dihydrochloride]	180
Cc1ccc2c(n1)CC(c1ccccc1)CC2=NN=C(N)N (stereo not drawn) [N-(2-methyl-7-phenyl-5,6,7,8-tetrahydro-5-quinolinyliden(imine))iminomethanediamine. dihydrochloride]	2800
NC(N)=NN=C1CC(c2ccccc2)Oc2ccccc21 (stereo not drawn) [N-(2-phenyl-3,4-dihydro-2H-4-chromenyliden(imine))iminomethanediamine. hydrochloride]	3300
NC(N)=NN=c1cc(-c2ccccc2)oc2ccccc12 [N-(2-phenyl-4H-4-chromenyliden(imine))iminomethanediamine. hydrochloride]	6400
Cc1ccnc2c1C(=NN=C(N)N)CC(c1ccccc1)C2 (stereo not drawn) [N-(4-methyl-7-phenyl-5,6,7,8-tetrahydro-5-quinolinyliden(imine))iminomethanediamine. dihydrochloride]	91
NC(N)=NN=C1CC(c2ccccc2)Cc2[nH]ccc21 (stereo not drawn) [N-(6-phenyl-4,5,6,7-tetrahydro-1H-4-indolyliden(imine))iminomethanediamine. dihydrochloride]	3500
NC(N)=NN=C1CC(c2ccccc2)Cc2ncccc21 (stereo not drawn) [N-(7-phenyl-5,6,7,8-tetrahydro-5-quinolinyliden(imine))iminomethanediamine. dihydrochloride]	410
COc1cccc(C=NNC(=N)N)c1OCc1ccccc1 [N-[2-(2-benzyloxy-3-methoxyphenyl)-(E)-1-meth(imine)]iminomethanediamine]	2300
Cc1cccc2c1C(=NN=C(N)N)CC(c1ccccc1Cl)O2 (stereo not drawn) [N-[2-(2-chlorophenyl)-5-methyl-3,4-dihydro-2H-4-chromenyliden(imine)]iminomethanediamine. hydrochloride]	200
Cc1cccc2oc(-c3ccccc3Cl)cc(=NN=C(N)N)c12 [N-[2-(2-chlorophenyl)-5-methyl-4H-4-chromenylidenmethyl]iminomethanediamine. dihydrochloride]	360
Cc1ccccc1C1CC(=NN=C(N)N)c2c(C)c[nH]c2C1 (stereo not drawn) [N-[3-methyl-6-(2-methylphenyl)-4,5,6,7-tetrahydro-1H-4-indolyliden(imine)]iminomethanediamine. dihydrochloride]	34
Cc1ccccc1C1CC(=NN=C(N)N)c2c(C)ccnc2C1 (stereo not drawn) [N-[4-methyl-7-(2-methylphenyl)-5,6,7,8-tetrahydro-5-quinolinyliden(imine)]iminomethanediamine. dihydrochloride]	57
Cc1ccnc2c1C(=NN=C(N)N)CC(c1cccs1)C2 (stereo not drawn) [N-[4-methyl-7-(2-thienyl)-5,6,7,8-tetrahydro-5-quinolinyliden(imine)]iminomethanediamine. dihydrochloride]	47
Cc1ccnc2c1C(=NN=C(N)N)CC(c1ccsc1)C2 (stereo not drawn) [N-[4-methyl-7-(3-thienyl)-5,6,7,8-tetrahydro-5-quinolinyliden(imine)]iminomethanediamine. dihydrochloride]	30
Cc1n[nH]c2c1C(=NN=C(N)N)CC(c1ccccc1Cl)C2 (stereo not drawn) [N-[6-(2-chlorophenyl)-3-methyl-4,5,6,7-tetrahydro-1H-4-indazolyliden(imine)]iminomethanediamine. dihydrochloride]	55

Structure (SMILES)	IC50 [nM]
Cc1coc2c1C(=NN=C(N)N)CC(c1ccccc1Cl)C2 (stereo not drawn) [N-[6-(2-chlorophenyl)-3-methyl-4,5,6,7-tetrahydrobenzo[b]furan-4-yliden(imine)]iminomethanediamine. hydrochloride]	82
Cc1ccnc2c1C(=NN=C(N)N)CC(c1cccc(Cl)c1Cl)C2 (stereo not drawn) [N-[7-(2,3-dichlorophenyl)-4-methyl-5,6,7,8-tetrahydro-5-quinolinyliden(imine)]iminomethanediamine. dihydrochloride]	89
Cc1ccnc2c1C(=NN=C(N)N)CC(c1ccc(Cl)cc1Cl)C2 (stereo not drawn) [N-[7-(2,4-dichlorophenyl)-4-methyl-5,6,7,8-tetrahydro-5-quinolinyliden(imine)]iminomethanediamine. dihydrochloride]	340
Cc1ccnc2c1C(=NN=C(N)N)CC(c1cc(Cl)ccc1Cl)C2 (stereo not drawn) [N-[7-(2,5-dichlorophenyl)-4-methyl-5,6,7,8-tetrahydro-5-quinolinyliden(imine)]iminomethanediamine. dihydrochloride]	58
Cc1ccnc2c1C(=NN=C(N)N)CC(c1cc(F)ccc1F)C2 (stereo not drawn) [N-[7-(2,5-difluorophenyl)-4-methyl-5,6,7,8-tetrahydro-5-quinolinyliden(imine)]iminomethanediamine. dihydrochloride]	39
Cc1ccnc2c1C(=NN=C(N)N)CC(c1ccccc1Br)C2 (stereo not drawn) [N-[7-(2-bromophenyl)-4-methyl-5,6,7,8-tetrahydro-5-quinolinyliden(imine)]iminomethanediamine. dihydrochloride]	56
Cc1ccnc2c1C(=NN=C(N)N)CC(c1ccsc1Cl)C2 (stereo not drawn) [N-[7-(2-chloro-3-thienyl)-4-methyl-5,6,7,8-tetrahydro-5-quinolinyliden(imine)]iminomethanediamine. dihydrochloride]	22
COc1ccnc2c1C(=NN=C(N)N)CC(c1ccccc1Cl)C2 (stereo not drawn) [N-[7-(2-chlorophenyl)-4-methoxy-5,6,7,8-tetrahydro-5-quinolinyliden(imine)]iminomethanediamine. 2CH3SO3H]	50
Cc1cnnc2c1C(=NN=C(N)N)CC(c1ccccc1Cl)C2 (stereo not drawn) [N-[7-(2-chlorophenyl)-4-methyl-5,6,7,8-tetrahydro-5-cinnolinyliden(imine)]iminomethanediamine. dihydrochloride]	26
Cc1ncnc2c1C(=NN=C(N)N)CC(c1ccccc1Cl)C2 (stereo not drawn) [N-[7-(2-chlorophenyl)-4-methyl-5,6,7,8-tetrahydro-5-quinazolinyliden(imine)]iminomethanediamine. dihydrochloride]	240
Cc1ccnc2c1C(=NN=C(N)N)CC(c1ccccc1Cl)C2 (stereo not drawn) [N-[7-(2-chlorophenyl)-4-methyl-5,6,7,8-tetrahydro-5-quinolinyliden(imine)]iminomethanediamine. dihydrochloride]	40
Cc1ccnc2c1C(=NN=C(N)N)C[C@@H](c1ccccc1Cl)C2 [N-[7-(2-chlorophenyl)-4-methyl-(7S)-5,6,7,8-tetrahydro-5-quinolinyliden(imine)]iminomethanediamine 2CH3SO3H]	700
Cc1ccnc2c1C(=NN=C(N)N)C[C@H](c1ccccc1Cl)C2 [N-[7-(2-chlorophenyl)-4-methyl-(7S)-5,6,7,8-tetrahydro-5-quinolinyliden(imine)]iminomethanediamine 2CH3SO3H]	20
Cc1ccnc2c1C(=NN=C(N)N)CC(c1ccco1)C2 (stereo not drawn) [N-[7-(2-furyl)-4-methyl-5,6,7,8-tetrahydro-5-quinolinyliden(imine)]iminomethanediamine. dihydrochloride]	110
COc1ccccc1C1CC(=NN=C(N)N)c2c(C)ccnc2C1 (stereo not drawn) [N-[7-(2-methoxyphenyl)-4-methyl-5,6,7,8-tetrahydro-5-quinolinyliden(imine)]iminomethanediamine. dihydrochloride]	100
Cc1ccnc2c1C(=NN=C(N)N)CC(c1sc(Cl)cc1Cl)C2 (stereo not drawn) [N-[7-(3,5-dichloro-2-thienyl)-4-methyl-5,6,7,8-tetrahydro-5-quinolinyliden(imine)]iminomethanediamine. dihydrochloride]	49
Cc1ccnc2c1C(=NN=C(N)N)CC(c1cccc(Cl)c1)C2 (stereo not drawn) [N-[7-(3-chlorophenyl)-4-methyl-5,6,7,8-tetrahydro-5-quinolinyliden(imine)]iminomethanediamine. dihydrochloride]	61
Cc1ccnc2c1C(=NN=C(N)N)CC(c1ccc(Cl)cc1)C2 (stereo not drawn) [N-[7-(4-chlorophenyl)-4-methyl-5,6,7,8-tetrahydro-5-quinolinyliden(imine)]iminomethanediamine. dihydrochloride]	550
Cc1ccc(F)cc1C1CC(=NN=C(N)N)c2c(C)ccnc2C1 (stereo not drawn) [N-[7-(5-fluoro-2-methylphenyl)-4-methyl-5,6,7,8-tetrahydro-5-quinolinyliden(imine)]iminomethanediamine. dihydrochloride]	37
